{"source": "patent US9458123B2", "about": "“Methods, pharmaceutical compositions, therapeutic systems, and compounds for treating B cell malignancies” (University of Rochester, priority 2012, dated 2016)", "key": {"[1]": {"tested_on": "PMA-induced NF-κB activation in SUDHL-6 cells", "experiment": "IκBα phosphorylation after PMA, western blot", "type": "cell-based", "details": "SUDHL-6, PMA 100 ng/ml", "protocol": "SUDHL-6, RAW264.7, and MEF cells were treated with NSC697923 or DMSO (control) for 1 hour before being stimulated with the PMA (100 ng/ml), RANKL (15 ng/ml), and LPS (1.5 μg/ml) for the indicated times. The levels of IκBα phosphorylation in the indicated samples were assessed by western blotting."}, "Ubc13-Uev1A complex": {"target": "T1, Ubc13-Uev1A complex (Homo sapiens, UniProt P61088)", "T1 construct": "made in house; host or cells: E. coli BL21 (GST-Ubc13); OCI-Ly10 cell lysate (Uev1A)", "T1 sequence (P61088 whole entry, the tested form may be a part)": "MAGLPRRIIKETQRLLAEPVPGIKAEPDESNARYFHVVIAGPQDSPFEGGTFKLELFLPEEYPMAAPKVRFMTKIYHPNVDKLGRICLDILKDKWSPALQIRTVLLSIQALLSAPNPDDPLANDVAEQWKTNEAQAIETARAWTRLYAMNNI", "T1 sequence (Q13404 whole entry partner, the tested form may be a part)": "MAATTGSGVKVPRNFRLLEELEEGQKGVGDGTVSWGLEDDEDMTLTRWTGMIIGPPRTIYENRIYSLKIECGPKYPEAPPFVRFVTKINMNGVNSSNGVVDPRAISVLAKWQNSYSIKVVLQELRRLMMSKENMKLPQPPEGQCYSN", "experiment": "GST pull-down, in vitro interaction between Ubc13 and Uev1A", "type": "binding", "details": "GST-Ubc13, OCI-Ly10 cell extract", "protocol": "Purified GST or GST-Ubc13 fusion proteins were incubated with the cell extract prepared from OCI-Ly10 cells with or without the presence of NSC697923 as indicated. The amounts of Uev1A protein associated with GST or GST-Ubc13 were analyzed by western blotting. The first lane was loaded with 8% of the input cell lysate. […] The assay was carried out as described in FIG. 4A, except that the loading buffer for SDS-PAGE gel contains no reducing agent, unless otherwise specified, and the reaction was analyzed by western blotting with a Ubc13-specific antibody. […] The assay was carried out as in FIG. 5B, except that UbcHSc, instead of Ubc13 and Uev1A, was used in the ubiquitination reaction and that a UbcHSc antibody was used for western blot analysis. […]\nGST-Ubc13 bound on glutathione-agarose beads was incubated with cell lysates prepared from OCI-Ly10 cells, with or without the presence of NSC697923, at 4° C. for 1 hour. […] The amounts of GST-Ubc13 and Uev1A proteins bound to the beads were then analyzed by western blotting."}, "UbcH5c": {"target": "T2, UbcH5c (Homo sapiens, UniProt P61077)", "T2 construct": "purchased Boston Biochem Inc E2-627", "T2 sequence (P61077 whole entry, the tested form may be a part)": "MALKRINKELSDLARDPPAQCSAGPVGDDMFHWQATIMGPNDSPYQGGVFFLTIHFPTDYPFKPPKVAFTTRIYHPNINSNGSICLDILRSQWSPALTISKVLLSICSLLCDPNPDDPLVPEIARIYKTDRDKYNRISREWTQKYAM", "experiment": "In vitro UbcH5c~Ub thioester conjugate formation", "type": "biochemical", "protocol": "Purified GST or GST-Ubc13 fusion proteins were incubated with the cell extract prepared from OCI-Ly10 cells with or without the presence of NSC697923 as indicated. The amounts of Uev1A protein associated with GST or GST-Ubc13 were analyzed by western blotting. The first lane was loaded with 8% of the input cell lysate. […] The assay was carried out as described in FIG. 4A, except that the loading buffer for SDS-PAGE gel contains no reducing agent, unless otherwise specified, and the reaction was analyzed by western blotting with a Ubc13-specific antibody. […] The assay was carried out as in FIG. 5B, except that UbcHSc, instead of Ubc13 and Uev1A, was used in the ubiquitination reaction and that a UbcHSc antibody was used for western blot analysis.\nFor detecting the E2-ubiquitin (Ubc13˜Ub or UbcH5c˜Ub) thioester conjugates, the reactions were carried out as described above without GST-TRAF6. The reactions were terminated with the SDS-sample buffer without a reducing agent unless specified. The products were analyzed by western blotting with an anti-Ubc13 or anti-UbcHSc antibody as indicated."}, "Ubc13 in OCI-Ly10 cells": {"target": "T3, Ubc13 in OCI-Ly10 cells (Homo sapiens, UniProt P61088)", "T3 construct": "endogenous in cells; host or cells: OCI-Ly10", "T3 sequence (P61088 whole entry)": "as the sequence (P61088 whole entry, the tested form may be a part) above", "experiment": "Ubc13~Ub conjugate formation in DLBCL cells, western blot", "type": "cell-based", "details": "3 hours", "protocol": "OCI-Ly10 cells were treated with the indicated concentrations of NSC697923 for 3 hours. The levels of Ubc13˜Ub conjugate were analyzed by western blotting using a Ubc13-specific antibody as described in FIG. 4B. […] OCI-Ly10 cells were treated with DMSO (0.1%) or the indicated concentrations of NSC697923 for 3.5 hours. The levels of the indicated proteins were analyzed by western blotting with the respective antibodies."}, "[2]": {"tested_on": "K63-linked ubiquitination and repair protein recruitment in U2OS cells", "experiment": "DNA double-strand break focus formation after γ-irradiation", "type": "cell-based", "details": "1 μM, γ-irradiated 10 Gy", "protocol": "Osteosarcoma U2OS cells were pretreated with 1 μM NSC697923 for 1 hour before γ-irradiated (10 Gy). 30 minutes after irradiation, the cells were fixed and stained with the monoclonal antibody FK2, which recognizes protein-conjugated, but not free, ubiquitin and marks the foci formed by K63-linked ubiquitinated proteins at sites of DSBs. […] U2OS cells were treated as described in FIG. 13A except that the focus formation of the indicated proteins is detected with their respective antibodies."}, "multiple myeloma cells": {"tested_on": "multiple myeloma cells", "experiment": "Growth of multiple myeloma cells, trypan blue exclusion assay", "type": "cell-based", "details": "24 hours", "protocol": "(§1) The indicated multiple myeloma cells were seeded at 300,000 cells/mL in 6-well plates and cultured in the presence of DMSO (0.2%, control) or various concentrations of NSC697923 for 24 hours. The live and dead cells were counted using the trypan blue exclusion assay. Shown are the means from 3 separate experiments. The average number of live cells in the control was set at 100.\nas §1, with “It has been shown that multiple myeloma cells also depend on NF-kB signaling for survival. It was thus hypothesized that these cells may also sensitive to NSC697923 treatment. […] The indicated” for “The indicated”"}}}
{"smiles": "Cc1ccc(S(=O)(=O)c2ccc([N+](=O)[O-])o2)cc1", "note": "[NSC697923, 2-nitro-5-tosylfuran]", "values": [{"measurement": "PMA-induced NF-κB activation (IκBα phosphorylation)", "setting": "[1]", "result": "inhibiting"}, {"measurement": "complex formation between Ubc13 and Uev1A", "setting": "Ubc13-Uev1A complex", "result": "no inhibitory effect"}, {"measurement": "formation of UbcH5c~Ub conjugate", "setting": "UbcH5c", "result": "is not inhibited"}, {"measurement": "formation of the Ubc13~Ub conjugate in cells", "setting": "Ubc13 in OCI-Ly10 cells", "result": "inhibited formation of the Ubc13˜Ub conjugate"}, {"measurement": "FK2 focus formation", "setting": "[2]", "result": "inhibition of FK2 focus formation"}, {"measurement": "recruitment of 53BP1 to sites of DNA double-strand breaks", "setting": "[2]", "result": "inhibits recruitment"}, {"measurement": "recruitment of BRCA1 to sites of DNA double-strand breaks", "setting": "[2]", "result": "inhibits recruitment"}, {"measurement": "growth of multiple myeloma cells", "setting": "multiple myeloma cells", "result": "inhibits the growth of multiple myeloma cells"}]}
